Data: paper PMC5566973 (Frontiers in Pharmacology, 2017)

Test system: MCTs
Assay: in vitro
Conditions: human, Caco-2, ER, Caco-2, 2 μM, + Phloretin 0.3 mM (MCTs)

COc1ccc2c3c([nH]c2c1)C(C)=NCC3 [Harmaline]
efflux ratio: 0.95
